Source: paper PMC9897788, “Design, synthesis and cytotoxic evaluation of novel bis-thiazole derivatives as preferential Pim1 kinase inhibitors with in vivo and in silico study” (Journal of Enzyme Inhibition and Medicinal Chemistry, 2023)

Legend:
Test in all cases: NCI 60 cell one-dose screening (SRB)
Assay type in all cases: cell-based
786-0 = settings: Homo sapiens; 786-0, Renal Cancer; single dose 10 µM, 48 h; read-out: Percentage of cellular growth inhibition
Procedure: (§1) The 60 cancerous cell panel screening was performed following the Developmental Therapeutics Program (DTP) of the National Cancer Institute (NIH-NCI), USA. A single dose of 10 µM was used to perform the screening at 48 h incubation and the results were achieved as cancerous cell growth percentage relative to the no-drug control that was converted to an inhibition percentage by subtracting from 100.The cancerous cell lines were grown in RPMI 1640 medium containing 5% foetal bovine serum and 2 mM L-glutamine at 37 °C, 5% CO2, 95% air and 100% relative humidity for 24 h prior to addition of the tested compounds. After 24 h, two plates of each cell line were fixed in situ with TCA to represent a measurement of the cell population for each cell line at the time of drug addition (Tz). Compounds were dissolved in DMSO at 400-fold the desired final maximum test concentration and stored frozen prior to use. At the time of drug addition, an aliquot of frozen concentrate was thawed and diluted to twice the desired final maximum test concentration with complete medium containing 50 µg/mL gentamicin. Aliquots of 100 µL of the compounds dilution was added to the appropriate micro titre wells already containing 100 µL of medium, resulting in the required final drug concentrations of 10 µM. Following compounds addition, the plates were incubated for an additional 48 h at 37 °C, 5% CO2, 95% air, and 100% relative humidity. For adherent cells, the assay was terminated by the addition of cold TCA. Cells were fixed in situ by the gentle addition of 50 µL of cold 50% (w/v) TCA (final concentration, 10% TCA) and incubated for 60 min at 4 °C. The supernatant was discarded, and the plates were washed five times with tap water and air dried. Sulphorhodamine B (SRB) solution (100 µL) at 0.4% (w/v) in 1% acetic acid is added to each well, and plates are incubated for 10 min at room temperature. After staining, unbound dye was removed by washing five times with 1% acetic acid and the plates were air dried. Bound stain was subsequently solubilised with 10 mM trizma base, and the absorbance was read on an automated plate reader at a wavelength of 515 nm. For suspension cells, the methodology was the same except that the assay was terminated by fixing settled cells at the bottom of the wells by gently adding 50 µL of 80% TCA (final concentration, 16% TCA). Using the seven absorbance measurements [time zero, (Tz), control growth, I, and test growth in the presence of drug at the five concentration levels (Ti)], the percentage growth was calculated as: [(Ti−Tz)/(C−Tz)]×100 for concentrations for which Ti>/=Tz [(Ti−Tz)/Tz]×100 for concentrations for which Ti<Tz.

A498 = settings: Homo sapiens; A498, Renal Cancer; single dose 10 µM, 48 h; read-out: Percentage of cellular growth inhibition
Procedure: as §1

A549/ATCC = settings: Homo sapiens, Non-Small Cell Lung Cancer, single dose 10 µM, 48 h, read-out: Percentage of cellular growth inhibition
Procedure: as §1

HCC-2998 = settings: Homo sapiens; HCC-2998, Colon Cancer; single dose 10 µM, 48 h; read-out: Percentage of cellular growth inhibition
Procedure: as §1

HCT-116 = settings: Homo sapiens; HCT-116, Colon Cancer; single dose 10 µM, 48 h; read-out: Percentage of cellular growth inhibition
Procedure: as §1

HOP-62 = settings: Homo sapiens; HOP-62, Non-Small Cell Lung Cancer; single dose 10 µM, 48 h; read-out: Percentage of cellular growth inhibition
Procedure: as §1

MCF7 = settings: Homo sapiens; MCF7, Breast Cancer; single dose 10 µM, 48 h; read-out: Percentage of cellular growth inhibition
Procedure: as §1

NCI-H226 = settings: Homo sapiens; NCI-H226, Non-Small Cell Lung Cancer; single dose 10 µM, 48 h; read-out: Percentage of cellular growth inhibition
Procedure: as §1

NCI-H322M = settings: Homo sapiens, Non-Small Cell Lung Cancer, single dose 10 µM, 48 h, read-out: Percentage of cellular growth inhibition
Procedure: as §1

OVCAR-4 = settings: Homo sapiens; OVCAR-4, Ovarian Cancer; single dose 10 µM, 48 h; read-out: Percentage of cellular growth inhibition
Procedure: as §1

RXF 393 = settings: Homo sapiens; RXF 393, Renal Cancer; single dose 10 µM, 48 h; read-out: Percentage of cellular growth inhibition
Procedure: as §1

SF-268 = settings: Homo sapiens; SF-268, CNS Cancer; single dose 10 µM, 48 h; read-out: Percentage of cellular growth inhibition
Procedure: as §1

SF-539 = settings: Homo sapiens; SF-539, CNS Cancer; single dose 10 µM, 48 h; read-out: Percentage of cellular growth inhibition
Procedure: as §1

SK-MEL-28 = settings: Homo sapiens; SK-MEL-28, Melanoma; single dose 10 µM, 48 h; read-out: Percentage of cellular growth inhibition
Procedure: as §1

SK-OV-3 = settings: Homo sapiens; SK-OV-3, Ovarian Cancer; single dose 10 µM, 48 h; read-out: Percentage of cellular growth inhibition
Procedure: as §1

SNB-75 = settings: Homo sapiens; SNB-75, CNS Cancer; single dose 10 µM, 48 h; read-out: Percentage of cellular growth inhibition
Procedure: as §1

TK-10 = settings: Homo sapiens; TK-10, Renal Cancer; single dose 10 µM, 48 h; read-out: Percentage of cellular growth inhibition
Procedure: as §1

U251 = settings: Homo sapiens, U-251; U251, CNS Cancer; single dose 10 µM, 48 h; read-out: Percentage of cellular growth inhibition
Procedure: as §1

UACC-257 = settings: Homo sapiens; UACC-257, Melanoma; single dose 10 µM, 48 h; read-out: Percentage of cellular growth inhibition
Procedure: as §1

UACC-62 = settings: Homo sapiens; UACC-62, Melanoma; single dose 10 µM, 48 h; read-out: Percentage of cellular growth inhibition
Procedure: as §1

UO-31 = settings: Homo sapiens; UO-31, Renal Cancer; single dose 10 µM, 48 h; read-out: Percentage of cellular growth inhibition
Procedure: as §1

| Compound | inhibition at 10 µM (786-0) [%] | inhibition at 10 µM (A498) [%] | inhibition at 10 µM (A549/ATCC) [%] | inhibition at 10 µM (HCC-2998) [%] | inhibition at 10 µM (HCT-116) [%] | inhibition at 10 µM (HOP-62) [%] | inhibition at 10 µM (MCF7) [%] | inhibition at 10 µM (NCI-H226) [%] | inhibition at 10 µM (NCI-H322M) [%] | inhibition at 10 µM (OVCAR-4) [%] | inhibition at 10 µM (RXF 393) [%] | inhibition at 10 µM (SF-268) [%] | inhibition at 10 µM (SF-539) [%] | inhibition at 10 µM (SK-MEL-28) [%] | inhibition at 10 µM (SK-OV-3) [%] | inhibition at 10 µM (SNB-75) [%] | inhibition at 10 µM (TK-10) [%] | inhibition at 10 µM (U251) [%] | inhibition at 10 µM (UACC-257) [%] | inhibition at 10 µM (UACC-62) [%] | other results |
| --- | --- | --- | --- | --- | --- | --- | --- | --- | --- | --- | --- | --- | --- | --- | --- | --- | --- | --- | --- | --- | --- |
| Cc1nc(Nc2cccc(Nc3nc(C)c(N=Nc4ccccc4)s3)c2)sc1N=Nc1ccccc1 [5a, N^1,N^3-bis(4-methyl-5-(phenyldiazenyl)thiazol-2-yl)benzene-1,3-diamine] | 18.7 | 1.2 | 36.4 | -0.4 | 14.1 | 9.3 | 52.4 | 33 | 22.8 | 30.8 | -4.4 | 42.4 | 15.4 | 2.5 | -6.6 | 38.4 | 2.9 | 30.1 | 2.7 | 30.9 | inhibition at 10 µM (UO-31): 69.7% |
| S=C(Nc1ccccc1)Nc1cccc(NC(=S)Nc2ccccc2)c1 [compound 7, 1,1′-(1,3-phenylene)bis(3-phenylthiourea)] | -13.4 | -17.7 | 0.1 | -11.5 | -11.8 | -18.9 | 8.5 | -6.2 | 2.6 | -6.6 | -16.6 | 3.3 | -11.5 | -9.8 | -29 | 7.9 | -17.5 | -1.4 | -1.7 | 5.8 | inhibition at 10 µM (UO-31): 14.6% |
